The values that follow come from US10947252B2, “Inhibitors of KEAP1-Nrf2 protein-protein interaction” (Janssen Pharmaceutica NV, priority 2018, dated 2021).

Test [1] concerns the target Kelch domain of human KEAP1 (321-624 aa) (Homo sapiens (Human), UniProt Q14145). The test is described as follows: KEAP1 KELCH ThermoFluor binding assay.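 Note: Ligand-induced melting temperature shift of E. coli-expressed KEAP1 Kelch protein, Kd estimated from concentration-response curves of ΔTm.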 The conditions noted are these: KEAP Kelch […], 1,8-ANS, pH 7.0, average of results obtained, read-out: Tf Kd.
Test [2] relates to Glo-Response ARE-luc2P HEK293 cell line. The test is described as follows: ARE luciferase reporter cell-based assay.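 Note: luciferase signal tracks Nrf2 activation of the ARE once compounds disrupt KEAP1-Nrf2 binding, read with One-Glo reagent, DMSO serving as low control.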 To be noted: Homo sapiens, HEK293, 24 h, average of results obtained.

Kelch domain of human KEAP1 (321-624 aa), sequence (Q14145 321-624): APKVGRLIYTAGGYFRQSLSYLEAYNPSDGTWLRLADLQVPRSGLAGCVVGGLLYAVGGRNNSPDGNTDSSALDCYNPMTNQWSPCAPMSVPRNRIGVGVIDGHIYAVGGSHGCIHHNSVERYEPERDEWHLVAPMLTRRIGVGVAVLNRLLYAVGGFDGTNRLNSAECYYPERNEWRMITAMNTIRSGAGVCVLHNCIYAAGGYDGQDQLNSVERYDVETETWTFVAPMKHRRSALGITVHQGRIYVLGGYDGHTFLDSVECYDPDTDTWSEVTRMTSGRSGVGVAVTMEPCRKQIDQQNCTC

Turning to `COC1CCN(CCOc2nc3c(cc2C)S(=O)(=O)N(Cc2cc([C@@H](c4ccn5c(C(F)(F)F)nnc5c4C)C(C)(C)C(=O)O)ccc2C)CC2(CC2)O3)CC1` (single isomer, unassigned) [Example 378, (*S)-3-(3-((7′-(2-(4-Methoxypiperidin-1-yl)ethoxy)-8′-methyl-1′,1′-dioxidospiro[cyclopropane-1,4′-pyrido[2,3-b][1,4,5]oxathiazepin]-2′(3′H)-yl)methyl)-4-methylphenyl)-2,2-dimethyl-3-(8-methyl-3-(trifluoromethyl)-[1,2,4]triazolo[4,3-a]pyridine-7-yl)propanoic Acid], in test [1], the Kd is < 1 nM. This molecule also came in with an EC50 in test [2] of 4 nM.

With `Cc1ccc([C@@H](c2ccn3c(C(F)F)nnc3c2C)C(C)(C)C(=O)O)cc1CN1CC2(CCOCC2)Oc2nc(OCCN3CCCCC3)c(C)cc2S1(=O)=O` (single isomer, unassigned) [Example 379, (*S)-3-(3-(Difluoromethyl)-8-methyl-[1,2,4]triazolo[4,3-a]pyridine-7-yl)-2,2-dimethyl-3-(4-methyl-3-((8′-methyl-1′,1′-dioxido-7′-(2-(piperidin-1-yl)ethoxy)-2,3,5,6-tetrahydrospiro[pyran-4,4′-pyrido[2,3-b][1,4,5]oxathiazepin]-2′(3′H)-yl)methyl)phenyl)propanoic Acid], the Kd in test [1] was < 1 nM. Besides, in test [2], the response was half-maximal at 12.3 nM (EC50).

Consider `Cc1ccc([C@H](c2ccn3c(C(F)(F)F)nnc3c2C)C(C)(C)C(=O)O)cc1CN1CC2(CC2)Oc2nc(N[C@@H](C)CN3CCCCC3)c(C)cc2S1(=O)=O` (single isomer, unassigned) [Example 380, (*R)-2,2-Dimethyl-3-(4-methyl-3-((8′-methyl-1′,1′-dioxido-7′-(((S)-1-piperidin-1-yl)propan-2-yl)amino)spiro[cyclopropane-1,4′-pyrido [2,3-b][1,4,5]oxathiazepin]-2′(3′H)-yl)methyl)phenyl)-3-(8-methyl-3-(trifluoromethyl)-[1,2,4]triazolo[4,3-a]pyridine-7-yl)propanoic Acid], for which, in test [1], the dissociation constant (Kd) was < 1 nM. In test [2], this molecule displayed an EC50 of 14.1 nM.

In the case of `Cc1ccc([C@@H](c2ccn3c(C(F)(F)F)nnc3c2C)C(C)(C)C(=O)O)cc1CN1C[C@]2(CCOC2)Oc2ncccc2S1(=O)=O` (single isomer, unassigned) [Example 381, (*S)-3-(3-(((*S)-1′,1′-Dioxido-4,5-dihydro-2H-spiro[furan-3,4′-pyrido[2,3-b][1,4,5]oxathiazepin]-2′(3′H)-yl)methyl)-4-methylphenyl)-2,2-dimethyl-3-(8-methyl-3-(trifluoromethyl)-[1,2,4]triazolo[4,3-a]pyridin-7-yl)propanoic Acid], in test [1], the Kd turned out to be 2820 nM. The EC50 in test [2] worked out at 427 nM.

On to `Cc1ccc([C@@H](c2ccn3c(C(F)(F)F)nnc3c2C)C(C)(C)C(=O)O)cc1CN1C[C@@]2(CCOC2)Oc2ncccc2S1(=O)=O` (single isomer, unassigned) [Example 382, (*S)-3-(3-(((*R)-1′,1′-Dioxido-4,5-dihydro-2H-spiro[furan-3,4′-pyrido[2,3-b][1,4,5]oxathiazepin]-2′(3′H)-yl)methyl)-4-methylphenyl)-2,2-dimethyl-3-(8-methyl-3-(trifluoromethyl)-[1,2,4]triazolo[4,3-a]pyridin-7-yl)propanoic Acid], for which, in test [1], the equilibrium dissociation constant (Kd) is < 1 nM. Further, in test [2], the EC50 stood at 1.8 nM.

Consider `Cc1cnc2c(c1)S(=O)(=O)N(Cc1cc([C@@H](c3ccn4c(C(F)(F)F)nnc4c3C)C(C)(C)C(=O)O)ccc1C)C[C@]1(CCOC1)O2` (single isomer, unassigned) [Example 383, (*S)-2,2-Dimethyl-3-(4-methyl-3-(((*S)-8′-methyl-1′,1′-dioxido-4,5-dihydro-2H-spiro[furan-3,4′-pyrido[2,3-b][1,4,5]oxathiazepin]-2′(3′H)-yl)methyl)phenyl)-3-(8-methyl-3-(trifluoromethyl)-[1,2,4]triazolo[4,3-a]pyridin-7-yl)propanoic Acid], for which, in test [1], the Kd was < 1 nM. Further, in test [2], the midpoint of the response, the EC50, lay at 1.2 nM.

Turning to `Cc1cnc2c(c1)S(=O)(=O)N(Cc1cc([C@@H](c3ccn4c(C(F)(F)F)nnc4c3C)C(C)(C)C(=O)O)ccc1C)C[C@@]1(CCOC1)O2` (single isomer, unassigned) [Example 384, (*S)-2,2-Dimethyl-3-(4-methyl-3-(((*R)-8′-methyl-1′,1′-dioxido-4,5-dihydro-2H-spiro[furan-3,4′-pyrido[2,3-b][1,4,5]oxathiazepin]-2′(3′H)-yl)methyl)phenyl)-3-(8-methyl-3-(trifluoromethyl)-[1,2,4]triazolo[4,3-a]pyridin-7-yl)propanoic Acid], the Kd in test [1] was determined as 246 nM. Besides, in test [2], the EC50 amounted to 150 nM.

As to `Cc1ccc([C@H](c2ccn3c(C(F)(F)F)nnc3c2C)C(C)(C)C(=O)O)cc1CN1C[C@]2(CCOC2)Oc2ncccc2S1(=O)=O` (single isomer, unassigned) [Example 385, (*R)-3-(3-(((*S)-1′,1′-Dioxido-4,5-dihydro-2H-spiro[furan-3,4′-pyrido[2,3-b][1,4,5]oxathiazepin]-2′(3′H)-yl)methyl)-4-methylphenyl)-2,2-dimethyl-3-(8-methyl-3-(trifluoromethyl)-[1,2,4]triazolo[4,3-a]pyridin-7-yl)propanoic Acid], the Kd in test [1] is < 1 nM. For the same molecule, the EC50 in test [2] was found to be 1.8 nM.

`Cc1ccc([C@H](c2ccn3c(C(F)(F)F)nnc3c2C)C(C)(C)C(=O)O)cc1CN1C[C@@]2(CCOC2)Oc2ncccc2S1(=O)=O` (single isomer, unassigned) [Example 386, (*R)-3-(3-(((*R)-1′,1′-Dioxido-4,5-dihydro-2H-spiro[furan-3,4′-pyrido[2,3-b][1,4,5]oxathiazepin]-2′(3′H)-yl)methyl)-4-methylphenyl)-2,2-dimethyl-3-(8-methyl-3-(trifluoromethyl)-[1,2,4]triazolo[4,3-a]pyridin-7-yl)propanoic Acid]: the Kd in test [1] was found to be 1060 nM. In test [2], this molecule registered an EC50 of 343 nM.

On to `Cc1cnc2c(c1)S(=O)(=O)N(Cc1cc([C@H](c3ccn4c(C(F)(F)F)nnc4c3C)C(C)(C)C(=O)O)ccc1C)C[C@]1(CCOC1)O2` (single isomer, unassigned) [Example 387, (*R)-2,2-Dimethyl-3-(4-methyl-3-(((*S)-8′-methyl-1′,1′-dioxido-4,5-dihydro-2H-spiro[furan-3,4′-pyrido[2,3-b][1,4,5]oxathiazepin]-2′(3′H)-yl)methyl)phenyl)-3-(8-methyl-3-(trifluoromethyl)-[1,2,4]triazolo[4,3-a]pyridin-7-yl)propanoic Acid], for which, in test [1], the Kd is 1230 nM. In addition, the EC50 in test [2] came out at 270 nM.

Turning to `Cc1cnc2c(c1)S(=O)(=O)N(Cc1cc([C@H](c3ccn4c(C(F)(F)F)nnc4c3C)C(C)(C)C(=O)O)ccc1C)C[C@@]1(CCOC1)O2` (single isomer, unassigned) [Example 388, (*R)-2,2-Dimethyl-3-(4-methyl-3-(((*R)-8′-methyl-1′,1′-dioxido-4,5-dihydro-2H-spiro[furan-3,4′-pyrido[2,3-b][1,4,5]oxathiazepin]-2′(3′H)-yl)methyl)phenyl)-3-(8-methyl-3-(trifluoromethyl)-[1,2,4]triazolo[4,3-a]pyridin-7-yl)propanoic Acid], in test [1], the Kd was < 1 nM. The same molecule registered an EC50 in test [2] of 1 nM.

With `Cc1ccc([C@H](CC(=O)O)c2ccn3c(C(F)(F)F)nnc3c2C)cc1CN1C[C@H]2CCCN2c2ncccc2S1(=O)=O` (single isomer, unassigned) [Example 389, (*S)-3-(3-(((R)-5,5-Dioxido-7a,8,9,10-tetrahydropyrido[2,3-f]pyrrolo[2,1-d][1,2,5]thiadiazepin-6(7H)-yl)methyl)-4-methylphenyl)-3-(8-methyl-3-(trifluoromethyl)-[1,2,4]triazolo[4,3-a]pyridin-7-yl)propanoic Acid], the Kd in test [1] was < 1 nM. Besides, in test [2], the EC50 amounted to 12.1 nM.

With `Cc1ccc([C@@H](CC(=O)O)c2ccn3c(C(F)(F)F)nnc3c2C)cc1CN1C[C@H]2CCCN2c2ncccc2S1(=O)=O` (single isomer, unassigned) [Example 390, (*R)-3-(3-(((R)-5,5-Dioxido-7a,8,9,10-tetrahydropyrido[2,3-f]pyrrolo[2,1-d][1,2,5]thiadiazepin-6(7H)-yl)methyl)-4-methylphenyl)-3-(8-methyl-3-(trifluoromethyl)-[1,2,4]triazolo[4,3-a]pyridin-7-yl)propanoic Acid], the Kd in test [1] is < 1 nM. This molecule yielded an EC50 in test [2] of 90.9 nM.

Regarding `Cc1cnc2c(c1)S(=O)(=O)N(Cc1cc([C@@H](c3ccn4c(C5CC5)nnc4c3C)C(C)(C)C(=O)O)ccc1C)CC1(CC1)O2` (single isomer, unassigned) [Example 392, (*S)-3-(3-Cyclopropyl-8-methyl-[1,2,4]triazolo[4,3-a]pyridin-7-yl)-2,2-dimethyl-3-(4-methyl-3-((8′-methyl-1′,1′-dioxidospiro[cyclopropane-1,4′-pyrido[2,3-b][1,4,5]oxathiazepin]-2′(3′H)-yl)methyl)phenyl)propanoic Acid], the Kd in test [1] is < 1 nM. The same molecule came in with an EC50 in test [2] of 11.3 nM.

For the molecule `Cc1cnc2c(c1)S(=O)(=O)N(Cc1cc([C@H](c3ccn4c(C5CC5)nnc4c3C)C(C)(C)C(=O)O)ccc1C)CC1(CC1)O2` (single isomer, unassigned) [Example 393, (*R)-3-(3-Cyclopropyl-8-methyl-[1,2,4]triazolo[4,3-a]pyridin-7-yl)-2,2-dimethyl-3-(4-methyl-3-((8′-methyl-1′,1′-dioxidospiro[cyclopropane-1,4′-pyrido[2,3-b][1,4,5]oxathiazepin]-2′(3′H)-yl)methyl)phenyl)propanoic Acid], the Kd in test [1] turned out to be 2100 nM. In test [2], the EC50 was found to be 4800 nM.

On to `Cc1cnc2c(c1)S(=O)(=O)N(Cc1cc([C@@H](c3ccc4c(nnn4C4CC4)c3C)C(C)(C)C(=O)O)cnc1C)CC1(CC1)O2` (single isomer, unassigned) [Example 395, (*S)-3-(1-Cyclopropyl-4-methyl-1H-benzo[d][1,2,3]triazol-5-yl)-2,2-dimethyl-3-(6-methyl-5-((8′-methyl-1′,1′-dioxidospiro[cyclopropane-1,4′-pyrido[2,3-b][1,4,5]oxathiazepin]-2′(3′H)-yl)methyl)pyridin-3-yl)propanoic Acid], for which the Kd in test [1] was < 1 nM. In test [2], this molecule yielded an EC50 of 15.7 nM.
